Results published in PubChem BioAssay AID330 (DTP/NCI, 2004).
Several values for one entry are separate records, joined by “and”; a condition that tells them apart may be missing. Identical values can stand only once. Inconclusive results and toxic doses are left out. The calls were made as follows: active = survival T/C of 150% or more; inactive = T/C below 125% in these data.

Test system: P388 leukemia ip, CD2F1 mice, survival T/C
Test: NCI In Vivo Anticancer Drug Screen. Data for tumor model P388 Leukemia (intraperitoneal) in CD2F1 (CDF1) mice
Conditions: endpoint: median survival time, higher = longer survival
Method in brief: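 Mice carrying the transplanted tumor received test compound or vehicle. Survival was recorded in each group, and the value is the treated-group measurement divided by that of the vehicle-treated control group.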

[1] = dose: 50.0 mg/kg/injection, schedule: Q01DX005 (ip), vehicle: Klucel (hydroxypropylcellulose) (HPC)
[2] = dose: 100.0 mg/kg/injection, schedule: Q01DX001 (ip), vehicle: Klucel (hydroxypropylcellulose) (HPC)
[3] = dose: 200.0 mg/kg/injection, schedule: Q01DX001 (ip), vehicle: Klucel (hydroxypropylcellulose) (HPC)
[4] = dose: 400.0 mg/kg/injection, schedule: Q01DX001 (ip), vehicle: Klucel (hydroxypropylcellulose) (HPC)
[5] = dose: 100.0 mg/kg/injection, schedule: Q01DX005 (ip), vehicle: Klucel (hydroxypropylcellulose) (HPC)
[6] = dose: 200.0 mg/kg/injection, schedule: Q01DX005 (ip), vehicle: Klucel (hydroxypropylcellulose) (HPC)

Measured: T/C

CNC(=O)n1nc(C)cc1C
inactive: dose: 50.0 mg/kg/injection, schedule: Q01DX005 (ip), vehicle: distilled water + alcohol 108 % of control | dose: 100.0 mg/kg/injection, schedule: Q01DX005 (ip), vehicle: distilled water + alcohol 102 % of control | dose: 200.0 mg/kg/injection, schedule: Q01DX005 (ip), vehicle: distilled water + alcohol 108 % of control

Cc1ccc2c(C(=O)O)cc(N)cc2n1
inactive: dose: 2.0 mg/kg/injection, schedule: Q01DX005 (ip), vehicle: Klucel (hydroxypropylcellulose) (HPC) 100 % of control | dose: 4.0 mg/kg/injection, schedule: Q01DX005 (ip), vehicle: Klucel (hydroxypropylcellulose) (HPC) 104 % of control | dose: 7.5 mg/kg/injection, schedule: Q01DX005 (ip), vehicle: Klucel (hydroxypropylcellulose) (HPC) 102 % of control | dose: 8.0 mg/kg/injection, schedule: Q01DX005 (ip), vehicle: Klucel (hydroxypropylcellulose) (HPC) 97 % of control

CN1c2ccccc2N=Cc2c1oc1ccc3ccccc3c1c2=O
inactive: dose: 12.5 mg/kg/injection, schedule: Q01DX005 (ip), vehicle: Klucel (hydroxypropylcellulose) (HPC) 96 % of control | dose: 25.0 mg/kg/injection, schedule: Q01DX005 (ip), vehicle: Klucel (hydroxypropylcellulose) (HPC) 103 % of control | [1] 92 % of control

CC(O)C(C)C(N)C(=O)O (stereo not drawn)
inactive: dose: 8.25 mg/kg/injection, schedule: Q01DX005 (ip), vehicle: water 100 % of control | dose: 16.5 mg/kg/injection, schedule: Q01DX005 (ip), vehicle: water 98 % of control | dose: 33.0 mg/kg/injection, schedule: Q01DX005 (ip), vehicle: water 100 % of control | dose: 66.0 mg/kg/injection, schedule: Q01DX005 (ip), vehicle: water 99 % of control

CCc1nn2c(-c3cnns3)nnc2s1
inactive: [2] 99 % of control | [3] 104 % of control | [4] 99 % of control

CC1=C(c2ccccc2)OS(=O)(=O)NC1=O
inactive: dose: 25.0 mg/kg/injection, schedule: Q01DX009 (ip), vehicle: water 114 % of control | dose: 50.0 mg/kg/injection, schedule: Q01DX009 (ip), vehicle: water 104 % of control | dose: 100.0 mg/kg/injection, schedule: Q01DX009 (ip), vehicle: water 106 % of control | dose: 200.0 mg/kg/injection, schedule: Q01DX009 (ip), vehicle: water 103 % of control | dose: 400.0 mg/kg/injection, schedule: Q01DX009 (ip), vehicle: water 113 % of control

CCCCCCCN(CCCCCCC)CC(O)c1c(Br)c2ccccc2c2ccccc12 (stereo not drawn)
inactive: dose: 10.0 mg/kg/injection, schedule: Q01DX009 (ip), vehicle: saline with Tween-80 115 % of control | dose: 20.0 mg/kg/injection, schedule: Q01DX009 (ip), vehicle: saline with Tween-80 115 % of control | dose: 40.0 mg/kg/injection, schedule: Q01DX009 (ip), vehicle: saline with Tween-80 98 % of control

Cc1ccc(C)n1-c1ccc(OCC(N)=O)cc1
inactive: dose: 60.0 mg/kg/injection, schedule: Q01DX005 (ip), vehicle: saline with Tween-80 104 % of control | dose: 120.0 mg/kg/injection, schedule: Q01DX005 (ip), vehicle: saline with Tween-80 97 % of control | dose: 240.0 mg/kg/injection, schedule: Q01DX005 (ip), vehicle: saline with Tween-80 90 % of control

Cc1cccc(Nc2cc(=O)[nH]c(=O)[nH]2)c1
inactive: dose: 100.0 mg/kg/injection, schedule: Q04DX003 (ip), vehicle: Klucel (hydroxypropylcellulose) (HPC) 110 % of control | dose: 200.0 mg/kg/injection, schedule: Q04DX003 (ip), vehicle: Klucel (hydroxypropylcellulose) (HPC) 98 % of control

COc1ccc2sc3cccc(NCCN(C)C)c3c(=O)c2c1
inactive: dose: 12.5 mg/kg/injection, schedule: Q01DX005 (ip), vehicle: saline with Tween-80 112 % of control | dose: 25.0 mg/kg/injection, schedule: Q01DX005 (ip), vehicle: saline with Tween-80 108 % of control | dose: 50.0 mg/kg/injection, schedule: Q01DX005 (ip), vehicle: saline with Tween-80 100 % of control and 95 % of control | dose: 100.0 mg/kg/injection, schedule: Q01DX005 (ip), vehicle: saline with Tween-80 98 % of control and 99 % of control | dose: 200.0 mg/kg/injection, schedule: Q01DX005 (ip), vehicle: saline with Tween-80 106 % of control | dose: 400.0 mg/kg/injection, schedule: Q01DX005 (ip), vehicle: saline with Tween-80 98 % of control

Nc1ccc2nc3ccc(O)cc3nc2c1
inactive: [1] 103 % of control | [5] 108 % of control | [6] 105 % of control

C/C(=N\SC(c1ccccc1)(c1ccccc1)c1ccccc1)c1ccccc1
inactive: dose: 100.0 mg/kg/injection, schedule: Q01DX001 (ip), vehicle: saline with Tween-80 95 % of control | dose: 200.0 mg/kg/injection, schedule: Q01DX001 (ip), vehicle: saline with Tween-80 88 % of control

CC(=O)N=c1sccn1CC(=O)c1ccccc1
inactive: dose: 25.0 mg/kg/injection, schedule: Q04DX003 (ip), vehicle: Klucel (hydroxypropylcellulose) (HPC) 119 % of control | dose: 50.0 mg/kg/injection, schedule: Q04DX003 (ip), vehicle: Klucel (hydroxypropylcellulose) (HPC) 96 % of control | [2] 100 % of control | [3] 100 % of control | [4] 101 % of control

NC(=S)C(Cl)(Cl)Cl
inactive: dose: 50.0 mg/kg/injection, schedule: Q01DX005 (ip), vehicle: saline + Tween-80 + alcohol 116 % of control | dose: 100.0 mg/kg/injection, schedule: Q01DX005 (ip), vehicle: saline + Tween-80 + alcohol 119 % of control | dose: 200.0 mg/kg/injection, schedule: Q01DX005 (ip), vehicle: saline + Tween-80 + alcohol 113 % of control

O=C1Nc2ccccc2C1(N1CCCCC1)N1CCCCC1
inactive: dose: 12.5 mg/kg/injection, schedule: Q01DX009 (ip), vehicle: saline 99 % of control | dose: 25.0 mg/kg/injection, schedule: Q01DX009 (ip), vehicle: saline 90 % of control | dose: 50.0 mg/kg/injection, schedule: Q01DX009 (ip), vehicle: saline with Tween-80 101 % of control | dose: 50.0 mg/kg/injection, schedule: Q01DX009 (ip), vehicle: saline 92 % of control | dose: 200.0 mg/kg/injection, schedule: Q01DX009 (ip), vehicle: saline with Tween-80 86 % of control

CCOC(=O)N1C=CC(C(=O)OC)=CC=C1C(=O)OC
inactive: [1] 98 % of control | [5] 95 % of control | [6] 94 % of control

CC(=O)NC(Cc1cnc[nH]1)C(=O)O (stereo not drawn)
inactive: dose: 100.0 mg/kg/injection, schedule: Q04DX003 (ip), vehicle: saline with Tween-80 98 % of control | dose: 200.0 mg/kg/injection, schedule: Q04DX003 (ip), vehicle: saline with Tween-80 99 % of control | dose: 400.0 mg/kg/injection, schedule: Q04DX003 (ip), vehicle: saline with Tween-80 100 % of control

[Cu+2].[NH-]C(CC(=O)O)C(=O)O.[NH-]C(CC(=O)O)C(=O)O (stereo not drawn)
inactive: dose: 7.5 mg/kg/injection, schedule: Q01DX005 (ip), vehicle: saline with Tween-80 98 % of control | dose: 15.0 mg/kg/injection, schedule: Q01DX005 (ip), vehicle: saline with Tween-80 100 % of control | dose: 30.0 mg/kg/injection, schedule: Q01DX005 (ip), vehicle: saline with Tween-80 111 % of control

CC1(C)O[C@@H]2C[C@H]3[C@@H]4CCC5=CC(=O)C=C[C@]5(C)[C@@]4(F)[C@@H](O)C[C@]3(C)[C@]2(C(=O)CO)O1
inactive: dose: 12.5 mg/kg/injection, schedule: Q01DX009 (ip), vehicle: saline with Tween-80 109 % of control | dose: 25.0 mg/kg/injection, schedule: Q01DX009 (ip), vehicle: saline with Tween-80 109 % of control

O=C1NNC(c2ccccc2)=Nc2ccccc21
inactive: dose: 100.0 mg/kg/injection, schedule: Q04DX002 (ip), vehicle: saline with Tween-80 96 % of control | dose: 200.0 mg/kg/injection, schedule: Q04DX002 (ip), vehicle: saline with Tween-80 96 % of control | dose: 400.0 mg/kg/injection, schedule: Q04DX002 (ip), vehicle: saline with Tween-80 94 % of control
